We go through five compounds from ChEMBL document CHEMBL1828594, “Synthesis, stereochemistry and SAR of a series of minodronate analogues as RGGT inhibitors” (Eur J Med Chem, 2011).

Test system in one test: not listed separately
Briefly: Inhibition of RGGT assessed as [3H]GGPP incorporation into Rab1a protein after 30 mins.
Conditions: not given
On to `O=C(O)C(O)(Cc1cnc2ccccn12)P(=O)(O)O` (racemic) [(2-HYDROXY-3-IMIDAZO[1,2-A]PYRIDIN-3-YL-2-PHOSPHONOPROPIONIC ACID (ENANTIONMERS)], for which the IC50 is 1.24 µM.

Take `O=C(O)C(Br)(Cc1cnc2ccccn12)P(=O)(O)O` (racemic): the IC50 worked out at 5.56 µM.

For the compound `O=C(O)C(Cl)(Cc1cnc2ccccn12)P(=O)(O)O` (racemic), the IC50 stood at 7.5 µM.

On to `O=C(O)C(Cc1cnc2ccccn12)P(=O)(O)O` (racemic), for which the IC50 turned out to be 13.4 µM.

For `O=C(O)C(F)(Cc1cnc2ccccn12)P(=O)(O)O` (stereo not given), the IC50 came to 6.11 µM.

Test system in a further test: not listed separately
Nature of the test: Inhibition of RGGT in cell-based assay assessed as inhibition of Rab11 prenylation after 24 hrs by Western blot analysis.
Conditions: not given
Background: A western blot detects proteins with antibodies after separation by electrophoresis.
In the case of `O=C(O)C(O)(Cc1cnc2ccccn12)P(=O)(O)O` (racemic) [(2-HYDROXY-3-IMIDAZO[1,2-A]PYRIDIN-3-YL-2-PHOSPHONOPROPIONIC ACID (ENANTIONMERS)], the LED amounted to 3 µM.

Turning to `O=C(O)C(Br)(Cc1cnc2ccccn12)P(=O)(O)O` (racemic), the LED turned out to be 25 µM.

Turning to `O=C(O)C(Cl)(Cc1cnc2ccccn12)P(=O)(O)O` (racemic), the LED turned out to be 12 µM.

Take `O=C(O)C(Cc1cnc2ccccn12)P(=O)(O)O` (racemic): the LED was 12 µM.

`O=C(O)C(F)(Cc1cnc2ccccn12)P(=O)(O)O` (stereo not given): the LED came out at 6 µM.

Another test deals with J774. Nature of the test: Cytotoxicity against mouse J774 cells assessed as reduction in cell viability after 48 hrs. The settings on record: J774, 48 h. It counts as functional, cell-based.
Turning to `O=C(O)C(O)(Cc1cnc2ccccn12)P(=O)(O)O` (racemic) [(2-HYDROXY-3-IMIDAZO[1,2-A]PYRIDIN-3-YL-2-PHOSPHONOPROPIONIC ACID (ENANTIONMERS)], the IC50 amounted to 50 µM.

Take `O=C(O)C(Br)(Cc1cnc2ccccn12)P(=O)(O)O` (racemic): the IC50 is more than 600 µM.

As for `O=C(O)C(Cl)(Cc1cnc2ccccn12)P(=O)(O)O` (racemic), the IC50 was more than 400 µM.

For `O=C(O)C(Cc1cnc2ccccn12)P(=O)(O)O` (racemic), the IC50 was more than 600 µM.

Turning to `O=C(O)C(F)(Cc1cnc2ccccn12)P(=O)(O)O` (stereo not given), the IC50 is 60 µM.

Usually IC50 stands for the point on the concentration scale where inhibition reaches its midpoint.
